What all share (type): in vivo
The subject of data set [1] is apomorphine-induced climbing. Briefly: apomorphine-induced climbing in mice, Compound 1 alone or with clozapine (Experiment 2). The settings on record: for ED50: Mus musculus, sc, apomorphine 1 mg/kg s.c., read-out: ED50 for apomorphine block. As for the experimental part: (§1) Using (7-(2,6-dichlorophenyl)-5-fluoro-2,3-dihydrobenzofuran-2-yl)methanamine (Compound 1) as an example, the present Example describes two experiments in which a compound of formula I, was administered in combination with either a typical (exemplified by haloperidol) or atypical (exemplified by clozapine). The combination reduced apomorphine-induced climbing without side effects.
(§2) Mice were acclimated to the climbing cages for at least 1 hour and then dosed with either the vehicle or a dose of haloperidol or clozapine followed by a dose of either vehicle or a dose of Compound 1. Thirty minutes after dosing all mice received 1 mg/kg s.c. apomorphine and returned to the climbing cages. Five minutes after apomorphine the mice were observed and scored for climbing and stereotypy every 5 minutes for the 30 minute test session.

For data set [2], the system named is apomorphine-induced climbing. The data set is described as follows: apomorphine-induced climbing in mice, Compound 1 alone or with haloperidol (Experiment 1). The following applies: for ED50: Mus musculus, sc, apomorphine 1 mg/kg s.c., read-out: ED50 for apomorphine block. Here is the method: as §1, §2
Data set [3] deals with catalepsy induced by haloperidol. The data set is described as follows: catalepsy (bar test), extra-pyramidal side effect liability, Compound 1 with haloperidol. The settings on record: Compound 1 3 mg/kg with haloperidol 0.1 & 0.17 mg/kg; 30, 60, 90 and 120 minutes after dosing; mice. As for the experimental part: Using (7-(2,6-dichlorophenyl)-5-fluoro-2,3-dihydrobenzofuran-2-yl)methanamine (Compound 1) as an example, the present Example describes an experiment in which a compound of formula I was administered in combination with haloperidol to assess extra-pyramidal side effect liability, as represented by cataleptic behavior. [table] Mice were dosed with either the vehicle or a dose of haloperidol followed by a dose of either vehicle or a dose of Compound 1. Thirty, 60, 90 and 120 minutes after dosing, the forelegs are draped over a thin horizontal rod 1.75″ high. The number of seconds up to 60 sec for which the mouse remains on the bar is recorded at each test point and presented as the percent of maximum possible response (60 sec).

[4] abbreviates: Compound 1 0.3, 1 & 3 mg/kg co-administered with clozapine 3 & 5.4 mg/kg.

One compound from US20060258639A1, “Therapeutic combinations for the treatment or prevention of psychotic disorders” (Wyeth, priority 2005, published 2006) can be followed below.

The term ED50 denotes the dose at which the effect has come halfway, by size or by number of responders.

On to `NCC1Cc2cc(F)cc(-c3c(Cl)cccc3Cl)c2O1` (centres unmarked) [Compound 1, (7-(2,6-dichlorophenyl)-5-fluoro-2,3-dihydrobenzofuran-2-yl)methanamine], for which the “block of apomorphine induced climbing versus either compound alone” value in data set [1] (setting [4]) is “greater block of apomorphine induced climbing”; in data set [2] (Compound 1 0.3, 1 & 3 mg/kg co-administered with haloperidol 0.17 mg/kg) it was “greater block of apomorphine induced climbing”. In addition, the effect on stereotypy result was “no effect on stereotypy” in data set [1] (setting [4]) and “no effect on stereotypy” in data set [2] (Compound 1 0.3, 1 & 3 mg/kg co-administered with haloperidol 0.17 mg/kg, relative to haloperidol alone). In addition, the ED50 in data set [1] (Experiment 2, Compound 1 alone) is 7.15 mg/kg; in data set [1] (Experiment 2, co-administered with 3 mg/kg of clozapine), 2.48 mg/kg; in data set [1] (Experiment 2, co-administered with 5.4 mg/kg of clozapine) it was 1.67 mg/kg; in data set [2] (Experiment 1, Compound 1 alone), 1.81 mg/kg; in data set [2] (Experiment 1, co-administered with 0.1 mg/kg of haloperidol) it was 1.49 mg/kg; in data set [2] (Experiment 1, co-administered with 0.17 mg/kg of haloperidol), 0.534 mg/kg. Also, in data set [3], the “catalepsy, percent of maximum possible response (60 sec)” value was “up to 45 % of maximum catalepsy”.
